Counter-ions that a name gives are not always drawn.
Assays:
[1] = tested on: lipid peroxidation in murine brain homogenate; assay: Inhibitory effects on lipid peroxidation (murine brain homogenate); format: biochemical, murine (C57 black mouse); conditions: 30 μM test compound; no added iron; 37° C., 60 minutes; pH 7.2 to 7.8
Description: (§1) The test was carried out according to the method described in Method in Enzymol., Vol. 52, page 302, 1978. A C57 black mouse was killed by cervical dislocation, and the whole brain extracted from the dissected head was washed with 20 mM phosphate buffer (hereinafter referred to as "PBS-2"). Then, the brain was added with PBS-2 in an amount of 19 times its wet weight, and the mixture was disrupted and homogenized with a homogenizer "Polytron" (manufactured by Kinematica). The thus prepared 5% solution of the murine brain homogenate in PBS-2 was diluted 1:5 with fresh PBS-2. To 800 μl of the resulting 1% solution of the murine brain homogenate in PBS-2 (protein content: 0.8 to 1.0 mg/ml) were successively added 100 μl of a PBS-2 solution of each of the test compounds shown in Table 7 below and 100 μl of an aqueous solution of ammonium iron (II) sulphate. The final concentration of the test compounds and ammonium iron (II) sulphate were adjusted to be 1 mM and 100 μM, respectively. If test compounds were not soluble in PBS-2 alone, an aqueous sodium hydroxide solution or DMSO was added. The pH of the solution was adjusted to 7.2 to 7.8.
Test for Inhibitory Effects on Lipid Peroxidation
To 900 μl of a 5% solution of the murine brain homogenate in PBS-2 prepared in the same way as described in Test Example 3 was added 100 μl of a PBS-2 solution of each of the test compounds shown in Table 8 below. The final concentration of the test compounds was adjusted to be 30 μM. If test compounds were not soluble in PBS-2 alone, an aqueous solution of sodium hydroxide or DMSO was added. The pH of the solution was adjusted to 7.2 to 7.8.
The solution after heated at 37° C. for 60 minutes was added with 1.0 ml of an aqeuous solution of thiobarbituric acid/trichloroacetic acid/hydrochloric acid, and the mixture was heated in a boiling water bath for 15 minutes. After ice-cooling, the solution was extracted with 2.0 ml of 1-butanol to prepare a sample for determining the lipid peroxide in the same way as described in Test Example 1. […] [formula] A4 : Absorbance when a test compound was added. A5 : Absorbance when a test compound was not added.
A6 : Abosrbance when a test compound was not added and heating at 37° C. for […] was not carried out.

[2] = UV absorptive activities; format: physicochemical; conditions: 100 μM in ethanol (water or DMSO added if not soluble); for Maximum molar extinction coefficient: UVA and UVB regions
Description: Test for UV Absorptive Activities
A solution of each of the test compounds shown in Table 10 below in ethanol was prepared for the final concentration to be 100 μM. If test compounds were not soluble in ethanol alone, water or DMSO was added.
The absorption spectrum of each sample was determined using a spectrophotometer "Model 320" (manufactured by Hitachi).

[3] = tested on: hydroxyl radical; assay: Inhibitory effects on hydroxyl radical formation (2) (iron (II)/hydrogen peroxide, DMPO, ESR); format: biochemical; conditions: 306 μM test compound; 306 μM iron (II) sulphate; 75 mM DMPO; 306 μM hydrogen peroxide; ESR within 40 seconds
Description: Test for Inhibitory Effects on Hydroxyl Radical Formation (2)
To 75 μl of a solution of each of the test compounds shown in Table 9 below in 0.1M phosphate buffer (hereinafter referred to as "PBS-3") were successively added 75 μl of an aqueous solution of iron (II) sulphate, 20 μl of an aqueous solution of 5,5-dimethyl-1-pyrroline-N-oxide "DMPO" (manufactured by Dojin Chemical) and 75 μl of an aqueous solution of hydrogen peroxide. […] If test compounds were not soluble in PBS-3 alone, an aqueous sodium hydroxide solution or N,N-dimethyl formamide was added.
This solution was subjected to determination for the hydroxy radical immediately (within 40 seconds), using an electron spin resonance (ESR) meter "JES-FR80S" (manufactured by Nippon Denshi).
[formula] E1 : Signal magnitude when a test compound was added. E2 : Signal magnitude when a test compound was not added.

[4] = tested on: lipid peroxidation in murine brain homogenate; assay: Inhibitory effects on metal ion-induced lipid peroxidation (murine brain homogenate); format: biochemical, murine (C57 black mouse); conditions: 1 mM test compound; 100 μM ammonium iron (II) sulphate; 37° C., 30 minutes; pH 7.2 to 7.8
Description: Test for Inhibitory Effects on Metal Ion-induced Lipid Peroxidation
as §1
The solution after heated at 37° C. for 30 minutes was added with 2.0 ml of an aqueous solution of thiobarbituric acid/trichloroacetic acid/hydrochloric acid, and the mixture was heated in a boiling water bath for 15 minutes. After ice-cooling, the solution was extracted with 1.0 ml of 1-butanol to prepare a sample for determining the peroxide lipid in the same way as described in Test Example 1.
(§2) [formula] A1 : Absorbance when a test compound was added. A2 : Absorbance when a test compound was not added.
A3 : Absorbance when a test compound was not added and heating at 37° C. for 30 minutes was not carried out.

[5] = tested on: hydroxyl radical; assay: Inhibitory effects on hydroxyl radical formation (1) (xanthine/xanthine oxidase, deoxyribose); format: biochemical; conditions: 360 μM test compound; 36 μM ammonium iron (III) sulphate; xanthine oxidase 0.7 unit/ml; 37° C., 15 minutes; pH 7.4 to 7.8
Description: Test for Inhibitory Effects on Hydroxyl Radical Formation (1)
The test was carried out in accordance with the method described in FEBS Letters, Vol. 128, page 347, 1981. Namely, to 1.1 ml of a solution of 54 mM sodium chloride in 9 mM phosphate buffer (hereinafter referred to as "PBS-I") were successively added 140 μl of a solution of each of the test compounds shown in Table 6 below in PBS-1, […] of a 1 mM solution of ammonium iron (III) sulphate in hydrochloric acid, 140 μl of a solution of xanthine (manufactured by Tokyo Kasei Co.) in PBS-1, 14 μl a solution of deoxyribose (Sigma) in PBS-1 and xanthine oxidase (Sigma). The final concentrations of the test compounds, ammonium iron (III) sulphate, xanthine, deoxyribose and xanthine oxidase were adjusted to be 360 μM, 36 μM, 70 μM, 700 μM and 0.7 unit/ml, respectively. If test compounds were not soluble in PBS-1 alone, aqueous sodium hydroxide solution or DMSO was added. The pH of the solution was adjusted to 7.4 to 7.8.
. The percent inhibition of the hydroxyl radical was calculated from the following equation (2) and the results are shown in Table 6. [formula] F1 : Intensity of fluorescence when a test compound was added. F2 : Intensity of fluorescence when a test compound was added but deoxyribose was not added.
F3 : Intensity of fluorescence when a test compound was not added.
F4 : Intensity of fluorescence when neither test compound nor deoxyribose was added.

[6] = tested on: lipid peroxidation in homogenate of murine swiss 3T3 cells; assay: Inhibitory effects on UV-induced lipid peroxidation (homogenate of murine swiss 3T3 cells); format: biochemical; conditions: 1 mM test compound; UVB 0.4 mW/cm^2, 90 min; pH 7.2 to 7.8; TBA, 535 nm
Description: Test for Inhibitory Effects on UV-induced Lipid Peroxidation
The test was carried out on the basis of the methods described in Biochim. Biophys. […] Namely, 12 μl of an aqueous sodium hydroxide solution of each of the test compounds shown in Table 5 below was added to 1.2 ml of a homogenate of murine swiss 3T3 cells (i.e. a kind of murine skin cells) prepared by a conventional method in 20 mM phosphate buffer (protein content: 1.5 to 1.8 mg/ml). The final concentration of the test compounds was adjusted to be 1 mM and the pH of the solution was adjusted to 7.2 to 7.8. If test compounds were not soluble in an aqueous sodium hydroxide solution, they were dissolved in N,N-dimethyl sulfoxide (DMSO).
This solution (1.1 ml) was irradiated with UV rays (0.4 mW/cm^2, 90 min.) using a UVB lamp "EB-280C/J" (manufactured by Spectronics). To an aliquot (1.0 ml) of this solution were successively added 0.2 ml of an aqueous solution of sodium dodecyl sulfate and 1.0 ml of an aqueous solution of thiobarbituric acid/trichloroacetic acid/hydrochloric acid, and the mixed solution was heated in a boiling water bath for 15 minutes. After ice-cooling, the solution was extracted with 1.0 ml of 1-butanol to prepare a sample for determining peroxide lipid as absorbance at a wavelength of 535 nm using a spectrophotometer "Model 320" (manufactured by Hitachi).
as §2
A3 : Absorbance when a test compound was not added and UV rays were not irradiated.

SMILES	% Inhibition of lipid peroxidation [1] [%]	Wavelength (nm) of maximum absorption [2] [nm]	Maximum molar extinction coefficient [2]	% Inhibition of hydroxy radicals [3] [%]	% Inhibition of metal ion-induced lipid peroxidation [4] [%]	% Inhibition of hydroxyl radical [5] [%]	% Inhibition of UV-induced lipid peroxidation [6] [%]
Cc1ncc(CO)c(C=NC(CO)C(=O)O)c1O (stereo not drawn) [Synthesis Example 69]	15	336	3,000	19	23	–	–
O=C(O)C(CCO)NCc1ccccc1O (stereo not drawn) [Synthesis Example 3]	–	–	–	45	21	15	65
O=C(O)C(Cc1ccc(O)cc1)NCc1ccccc1O (stereo not drawn) [Synthesis Example 4]	–	–	–	27	26	33	60
Cc1ncc(CO)c(CNC(CO)C(=O)O)c1O (stereo not drawn) [Synthesis Example 18]	44	290	3,500	43	26	42	–
Cc1ncc(CO)c(CNCC(=O)O)c1O [Synthesis Example 16]	89	–	–	56	–	–	–
O=C(O)C(Cc1ccc(O)cc1)N=Cc1c(O)ccc2ccccc12 (stereo not drawn) [Synthesis Example 31]	–	–	–	–	90	16	–
Cc1ncc(CO)c(C=N[C@@H](Cc2c[nH]cn2)C(=O)O)c1O [Synthesis Example 68, N-pyridoxilidene-L-histidine-sodium salt]	–	291	4,300	10	15	15	–
O=C(O)[C@H](Cc1c[nH]cn1)N=Cc1c(O)ccc2ccccc12 [Synthesis Example 27, N-(2-hydroxy-1-naphthal)-L-histidine]	98	309	7,000	71	87	–	–
Cc1ncc(CO)c(CNC(Cc2c[nH]cn2)C(=O)O)c1O (stereo not drawn) [Synthesis Example 22]	91	290	5,300	51	–	–	–
O=C(O)[C@H](Cc1c[nH]cn1)NCc1ccccc1O [Synthesis Example 1, N-(2-hydroxybenzyl)-L-histidine]	53	–	–	27	26	29	40
Cc1ncc(CO)c(C=NC(Cc2ccc(O)cc2)C(=O)O)c1O (stereo not drawn) [Synthesis Example 70]	–	–	–	28	27	60	–
O=C(O)C(CCO)N=Cc1c(O)ccc2ccccc12 (stereo not drawn) [Synthesis Example 29]	–	–	–	60	78	–	–
O=C(O)CC(O)(CC(=O)O)C(=O)O [Citric acid, reference compound]	-13	–	–	–	-15	-33	19
N=C(N)NCCCC(N=Cc1c(O)ccc2ccccc12)C(=O)O (stereo not drawn) [Synthesis Example 53]	–	–	–	68	96	–	–
COC(=O)CCC(N=Cc1c(O)ccc2ccccc12)C(=O)O (stereo not drawn) [Synthesis Example 48]	–	–	–	54	85	–	–
CC(C)C(N=Cc1c(O)ccc2ccccc12)C(=O)O (stereo not drawn) [Synthesis Example 30]	–	–	–	25	43	–	–
O=C(O)C(Cc1c[nH]cn1)N=Cc1ccccc1O (stereo not drawn) [Synthesis Example 60]	–	–	–	33	34	–	–
O=C(O)C(CO)NCc1ccccc1O (stereo not drawn) [Synthesis Example 2]	26	–	–	44	41	29	59
O=C(O)CCC(N=Cc1c(O)ccc2ccccc12)C(=O)O (stereo not drawn) [Synthesis Example 47]	–	–	–	32	90	–	–

Reference: patent US5594012A, “Amino acid derivatives and anti-active oxygen agents” (Ajinomoto Co., Inc., priority 1992, dated 1997)
